Experimental data reported in PubChem BioAssay AID248 (DTP/NCI, 2004).
Several values for one entry are separate records, joined by “and”; a condition that tells them apart may be missing. Equal values may be shown once. Toxic doses and inconclusive results are not listed. Rule as the data show it: active = T/C of 150% or more; inactive = T/C below 125%.

Test system: L1210 leukemia ip in BDF1 mice, survival T/C
Assay: NCI In Vivo Anticancer Drug Screen. Data for tumor model L1210 Leukemia (intraperitoneal) in B6D2F1 (BDF1) mice
Details: higher = longer survival
Method in brief: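 Mice bearing the transplanted tumor received compound or vehicle. Survival of the treated group was divided by that of the vehicle-treated control group to give the ratio.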

[1] = endpoint: mean survival time, dose: 50.0 mg/kg/injection, schedule: Q01DX001 (ip), vehicle: saline
[2] = endpoint: mean survival time, dose: 100.0 mg/kg/injection, schedule: Q01DX009 (ip), vehicle: Klucel (hydroxypropylcellulose) (HPC)
[3] = endpoint: mean survival time, dose: 100.0 mg/kg/injection, schedule: Q04DX003 (ip), vehicle: Klucel (hydroxypropylcellulose) (HPC)
[4] = endpoint: mean survival time, dose: 200.0 mg/kg/injection, schedule: Q01DX009 (ip), vehicle: Klucel (hydroxypropylcellulose) (HPC)
[5] = endpoint: mean survival time, dose: 200.0 mg/kg/injection, schedule: Q04DX003 (ip), vehicle: Klucel (hydroxypropylcellulose) (HPC)
[6] = endpoint: mean survival time, dose: 400.0 mg/kg/injection, schedule: Q01DX009 (ip), vehicle: Klucel (hydroxypropylcellulose) (HPC)
[7] = endpoint: mean survival time, dose: 400.0 mg/kg/injection, schedule: Q04DX003 (ip), vehicle: Klucel (hydroxypropylcellulose) (HPC)
[8] = endpoint: mean survival time, dose: 100.0 mg/kg/injection, schedule: Q01DX009 (ip), vehicle: saline with Tween-80
[9] = endpoint: mean survival time, dose: 200.0 mg/kg/injection, schedule: Q01DX009 (ip), vehicle: saline with Tween-80
[10] = endpoint: mean survival time, dose: 400.0 mg/kg/injection, schedule: Q01DX009 (ip), vehicle: saline with Tween-80
[11] = endpoint: mean survival time, dose: 25.0 mg/kg/injection, schedule: Q01DX001 (ip), vehicle: Klucel (hydroxypropylcellulose) (HPC)
[12] = endpoint: mean survival time, dose: 50.0 mg/kg/injection, schedule: Q01DX001 (ip), vehicle: Klucel (hydroxypropylcellulose) (HPC)
[13] = endpoint: mean survival time, dose: 100.0 mg/kg/injection, schedule: Q01DX001 (ip), vehicle: Klucel (hydroxypropylcellulose) (HPC)
[14] = endpoint: mean survival time, dose: 100.0 mg/kg/injection, schedule: Q01DX001 (ip), vehicle: saline
[15] = endpoint: mean survival time, dose: 200.0 mg/kg/injection, schedule: Q01DX001 (ip), vehicle: saline
[16] = endpoint: mean survival time, dose: 400.0 mg/kg/injection, schedule: Q01DX001 (ip), vehicle: saline
[17] = endpoint: mean survival time, dose: 100.0 mg/kg/injection, schedule: Q04DX002 (ip), vehicle: Klucel (hydroxypropylcellulose) (HPC)
[18] = endpoint: mean survival time, dose: 200.0 mg/kg/injection, schedule: Q04DX002 (ip), vehicle: Klucel (hydroxypropylcellulose) (HPC)
[19] = endpoint: mean survival time, dose: 400.0 mg/kg/injection, schedule: Q04DX002 (ip), vehicle: Klucel (hydroxypropylcellulose) (HPC)

Measured: T/C

COc1cc([C@@H]2c3cc4c(cc3C[C@H]3COC(=O)[C@@H]32)OCO4)cc(OC)c1OC
inactive: endpoint: mean survival time, dose: 3.12 mg/kg/injection, schedule: Q01DX009 (ip), vehicle: saline 94 % of control | endpoint: mean survival time, dose: 6.25 mg/kg/injection, schedule: Q01DX009 (ip), vehicle: saline 109 % of control | endpoint: mean survival time, dose: 12.5 mg/kg/injection, schedule: Q01DX001 (ip), vehicle: saline 115 % of control | endpoint: mean survival time, dose: 12.5 mg/kg/injection, schedule: Q01DX009 (ip), vehicle: saline 110 % of control | endpoint: mean survival time, dose: 25.0 mg/kg/injection, schedule: Q01DX001 (ip), vehicle: saline 115 % of control | endpoint: mean survival time, dose: 25.0 mg/kg/injection, schedule: Q01DX009 (ip), vehicle: saline 116 % of control | endpoint: mean survival time, dose: 45.0 mg/kg/injection, schedule: Q01DX001 (ip), vehicle: saline 123 % of control | endpoint: mean survival time, dose: 50.0 mg/kg/injection, schedule: Q01DX001 (ip), vehicle: other 109 % of control | endpoint: mean survival time, dose: 50.0 mg/kg/injection, schedule: Q01DX001 (ip), vehicle: saline with Tween-80 110 % of control | [1] 111 % of control and 117 % of control | endpoint: mean survival time, dose: 50.0 mg/kg/injection, schedule: Q04DX003 (ip), vehicle: saline with Tween-80 116 % of control | endpoint: mean survival time, dose: 100.0 mg/kg/injection, schedule: Q01DX001 (ip), vehicle: other 116 % of control | endpoint: median survival time, dose: 2.5 mg/kg/injection, schedule: Q01DX009 (ip), vehicle: saline 111 % of control | endpoint: median survival time, dose: 5.0 mg/kg/injection, schedule: Q01DX009 (ip), vehicle: saline 122 % of control | endpoint: median survival time, dose: 10.0 mg/kg/injection, schedule: Q01DX009 (ip), vehicle: saline 88 % of control

c1ccc(CCN2CCCCC2)cc1
inactive: endpoint: mean survival time, dose: 10.0 mg/kg/injection, schedule: Q01DX001 (ip), vehicle: saline 95 % of control | endpoint: mean survival time, dose: 20.0 mg/kg/injection, schedule: Q01DX001 (ip), vehicle: saline 116 % of control | endpoint: mean survival time, dose: 40.0 mg/kg/injection, schedule: Q01DX001 (ip), vehicle: saline 96 % of control

C1CNC(NC23CC4CC(CC(C4)C2)C3)=N1
inactive: [2] 98 % of control

CSc1ccc(/C=C/c2ccc([N+](=O)[O-])cc2)cc1
inactive: [2] 97 % of control | [3] 91 % of control | [4] 88 % of control | [5] 93 % of control | [6] 92 % of control | [7] 88 % of control

CCCC(C)C(=O)Nc1cccc(OC(=O)NC(C)(C)C)c1 (stereo unspecified)
inactive: [8] 92 % of control | [9] 89 % of control | [10] 87 % of control

CC(=O)Nc1c(CCCCc2ccccc2)[nH]c(=O)[nH]c1=O
inactive: [11] 101 % of control | [12] 92 % of control | [13] 99 % of control and 101 % of control

CN(C)C(=S)Oc1c(Cl)cc(Cl)cc1S(=O)(=O)F
inactive: [3] 104 % of control | [5] 98 % of control | [7] 98 % of control

[Cl][Cd][Cl].c1ccc(N=P(c2ccccc2)(c2ccccc2)c2ccccc2)cc1
inactive: endpoint: mean survival time, dose: 9.38 mg/kg/injection, schedule: Q01DX001 (ip), vehicle: other 105 % of control

O=C1CCOc2ccc3ccccc3c21
inactive: [13] 101 % of control | [2] 109 % of control | endpoint: mean survival time, dose: 200.0 mg/kg/injection, schedule: Q01DX001 (ip), vehicle: Klucel (hydroxypropylcellulose) (HPC) 98 % of control | [4] 101 % of control | endpoint: mean survival time, dose: 400.0 mg/kg/injection, schedule: Q01DX001 (ip), vehicle: Klucel (hydroxypropylcellulose) (HPC) 90 % of control | [6] 111 % of control

NC(=S)NN=C1CCSCC1
inactive: endpoint: mean survival time, dose: 8.4 mg/kg/injection, schedule: Q01DX Z (ip), vehicle: methylcellulose (MC) 96 % of control | endpoint: mean survival time, dose: 14.0 mg/kg/injection, schedule: Q01DX Z (ip), vehicle: methylcellulose (MC) 92 % of control | endpoint: mean survival time, dose: 23.0 mg/kg/injection, schedule: Q01DX Z (ip), vehicle: methylcellulose (MC) 98 % of control | endpoint: mean survival time, dose: 39.0 mg/kg/injection, schedule: Q01DX Z (ip), vehicle: methylcellulose (MC) 98 % of control

O=C(O)/C(=C\c1ccc([N+](=O)[O-])cc1)CCc1ccccc1
inactive: [2] 91 % of control | [4] 92 % of control | [6] 92 % of control

O=C(Oc1ccccc1I)c1cc(I)c(I)c(I)c1
inactive: [3] 92 % of control | [7] 94 % of control

C=CCCCCCCCCO
inactive: [1] 98 % of control | [14] 95 % of control | [15] 95 % of control

FC(F)OC(F)(F)C(F)Cl (stereo unspecified)
inactive: [14] 89 % of control | [15] 89 % of control | [16] 97 % of control

NC(=O)C1OC(n2cnc3c(N)ncnc32)C(O)C1O (stereo unspecified)
inactive: endpoint: mean survival time, dose: 0.09 mg/kg/injection, schedule: Q01DX009 (ip), vehicle: saline 101 % of control | endpoint: mean survival time, dose: 0.19 mg/kg/injection, schedule: Q01DX005 (ip), vehicle: saline 114 % of control | endpoint: mean survival time, dose: 0.19 mg/kg/injection, schedule: Q01DX009 (ip), vehicle: saline 100 % of control | endpoint: mean survival time, dose: 0.39 mg/kg/injection, schedule: Q01DX009 (ip), vehicle: saline 107 % of control | endpoint: mean survival time, dose: 0.78 mg/kg/injection, schedule: Q01DX009 (ip), vehicle: saline 103 % of control | endpoint: mean survival time, dose: 1.56 mg/kg/injection, schedule: Q01DX009 (ip), vehicle: saline 114 % of control

Nc1ccc2c(c1)C(=O)c1c(F)c(F)c(F)c(F)c1-2
inactive: endpoint: mean survival time, dose: 50.0 mg/kg/injection, schedule: Q01DX001 (ip), vehicle: carboxymethylcellulose (CMC) 97 % of control | endpoint: mean survival time, dose: 100.0 mg/kg/injection, schedule: Q01DX001 (ip), vehicle: carboxymethylcellulose (CMC) 103 % of control | endpoint: mean survival time, dose: 200.0 mg/kg/injection, schedule: Q01DX001 (ip), vehicle: carboxymethylcellulose (CMC) 97 % of control | endpoint: mean survival time, dose: 400.0 mg/kg/injection, schedule: Q01DX001 (ip), vehicle: carboxymethylcellulose (CMC) 100 % of control

CCc1ccc2[nH]c(C(=O)O)cc2c1
inactive: [14] 92 % of control | [16] 90 % of control

Cc1cc[n+](C2CC(C)(C)c3ccccc3C2=O)cc1 (stereo unspecified)
inactive: endpoint: mean survival time, dose: 12.5 mg/kg/injection, schedule: Q01DX001 (ip), vehicle: Klucel (hydroxypropylcellulose) (HPC) 100 % of control | [11] 113 % of control | [12] 98 % of control

O=C1CCc2cc3c(cc21)OCO3
inactive: endpoint: mean survival time, dose: 100.0 mg/kg/injection, schedule: Q04DX003 (ip), vehicle: saline 103 % of control | endpoint: mean survival time, dose: 200.0 mg/kg/injection, schedule: Q04DX003 (ip), vehicle: saline 96 % of control | endpoint: mean survival time, dose: 400.0 mg/kg/injection, schedule: Q04DX003 (ip), vehicle: saline 102 % of control

Nc1nc(N)c(CCCOc2ccccc2)c(-c2ccccc2)n1
inactive: [17] 105 % of control | [18] 101 % of control | [19] 101 % of control

Cc1ccc(OC(C)C(=O)O)c(C)c1 (stereo unspecified)
inactive: [17] 104 % of control | [18] 98 % of control | [19] 95 % of control

Cc1cccc(C)c1NC(=S)N1CCC(CCCC2CCN(C(=S)Nc3c(C)cccc3C)CC2)CC1
inactive: [8] 93 % of control and 98 % of control | [9] 95 % of control and 105 % of control | [10] 93 % of control and 98 % of control

CS(=O)(=O)NC[C@H](Cl)[C@@H](Cl)CNS(C)(=O)=O
inactive: [14] 100 % of control | [15] 102 % of control | [16] 91 % of control
